Each structure is given as a SMILES string. pKi: −log10 of the molar value.

The results in this text go back to BindingDB's records for doi:10.1016/j.bmc.2006.03.042 (F. Hoffmann-La Roche, 2006).

Holding throughout (test): Serine Protease Inhibition Assay
Experiment [1] concerns the target Coagulation factor X (Homo sapiens, UniProt P00742). The procedure: (§1) The enzyme reactions were initiated by the addition of substrate, and the color developed from the release of p-nitroanilide from each chromogenic substrate was monitored continuously for 5 min at 405 nm on a microtiter plate reader. […] The apparent Ki values were then calculated according to the Cheng-Prusoff equation: Ki = IC50/1 + [S]/Km.

Experiment [2] has as its target T1, Serine protease 1 (Bos taurus, UniProt P00760).
T1 sequence (P00760 whole entry): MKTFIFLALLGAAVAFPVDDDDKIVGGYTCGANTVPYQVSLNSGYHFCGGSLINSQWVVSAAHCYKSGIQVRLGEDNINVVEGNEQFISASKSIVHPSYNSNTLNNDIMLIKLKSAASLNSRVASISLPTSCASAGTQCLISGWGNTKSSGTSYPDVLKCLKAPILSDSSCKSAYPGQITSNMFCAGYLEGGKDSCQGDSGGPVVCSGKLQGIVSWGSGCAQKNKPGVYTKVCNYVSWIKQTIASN
As for the experimental part: as §1

Experiment [3] addresses T2, Coagulation factor VII (Homo sapiens, UniProt P08709).
T2 sequence (P08709 whole entry): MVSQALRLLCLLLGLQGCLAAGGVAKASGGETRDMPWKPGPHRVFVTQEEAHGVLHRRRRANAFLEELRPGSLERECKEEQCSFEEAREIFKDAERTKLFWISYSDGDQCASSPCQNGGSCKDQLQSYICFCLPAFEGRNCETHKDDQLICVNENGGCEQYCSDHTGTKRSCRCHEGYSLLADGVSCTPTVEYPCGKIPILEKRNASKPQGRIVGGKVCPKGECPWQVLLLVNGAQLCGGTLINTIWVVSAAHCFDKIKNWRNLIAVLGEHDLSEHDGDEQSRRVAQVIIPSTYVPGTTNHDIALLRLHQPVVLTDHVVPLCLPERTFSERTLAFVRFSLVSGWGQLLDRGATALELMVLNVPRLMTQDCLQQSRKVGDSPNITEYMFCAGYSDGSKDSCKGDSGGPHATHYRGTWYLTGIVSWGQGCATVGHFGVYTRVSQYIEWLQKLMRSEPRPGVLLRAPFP
Particulars: pH 7.8; 22 °C. As for the experimental part:
as §1

The target in experiment [4] is Prothrombin (Homo sapiens, UniProt P00734). Particulars: pH 7.8; 22 °C. The procedure:
as §1

Chain of Coagulation factor X (P00742 41-179 limits assumed): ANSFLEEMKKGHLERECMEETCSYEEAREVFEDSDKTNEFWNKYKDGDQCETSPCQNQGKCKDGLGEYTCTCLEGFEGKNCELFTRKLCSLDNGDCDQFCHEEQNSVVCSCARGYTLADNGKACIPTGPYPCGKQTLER
Chain of Coagulation factor X (P00742 235-488 limits assumed): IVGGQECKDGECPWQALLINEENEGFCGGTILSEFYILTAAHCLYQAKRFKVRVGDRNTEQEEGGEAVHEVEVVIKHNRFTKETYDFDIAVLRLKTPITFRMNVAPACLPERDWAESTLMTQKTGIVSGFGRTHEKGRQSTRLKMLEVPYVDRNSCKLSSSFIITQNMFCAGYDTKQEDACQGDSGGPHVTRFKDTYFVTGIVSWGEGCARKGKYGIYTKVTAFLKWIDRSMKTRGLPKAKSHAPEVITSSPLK

The term pKi denotes the Ki on a negative log10 scale, so that one unit is a factor of ten. Higher therefore signals a low Ki. Turning to `CCOc1cc(OCC)c(F)c(C(Nc2ccc(C(=N)N)cc2)C(=O)O)c1` (racemic) [2-[(4-carbamimidoylphenyl)amino]-2-(3,5-diethoxy-2-fluorophenyl)acetic acid], the pKi in experiment [1] is 5.52; in experiment [2], 5.17; in experiment [3], 6.70; in experiment [4], 5.06.

With `CCOc1cc(OC2CCOC2)cc(C(Nc2ccc(C(=N)N)cc2)C(=O)O)c1` (stereo not given) [(4-Carbamimidoyl-phenylamino)-[3-ethoxy-5-(tetra-hydrofuran-3-yloxy)-phenyl]-acetic acid], the negative-log Ki (pKi) in experiment [1] was 5.54; in experiment [2] it was under 5.17; in experiment [4] it was 4.97.

As for `CCOc1cc(OCC)cc(C(Nc2ccc(C(=N)N)cc2)C(=O)O)c1` (stereo not given) [2-[(4-carbamimidoylphenyl)amino]-2-(3,5-diethoxyphenyl)acetic acid], the pKi in experiment [4] was under 4.46.

Turning to `CCOc1cc(O[C@@H]2CCOC2)c(F)c([C@@H](Nc2ccc(C(=N)N)cc2)C(=O)O)c1` [(2R)-2-[(4-carbamimidoylphenyl)amino]-2-{5-ethoxy-2-fluoro-3-[(3R)-oxolan-3-yloxy]phenyl}acetic acid], the pKi in experiment [1] is 5.72; in experiment [2], 5.49; in experiment [3], 7.09; in experiment [4] it was 5.35.

For the compound `COc1ccc(-c2ccc(C(=O)N[C@H](CO)C(C)(C)C)cc2C(=O)O)c(C(=O)Nc2ccc(C(=N)N)cc2)n1` [2-{2-[(4-carbamimidoylphenyl)carbamoyl]-6-methoxypyridin-3-yl}-5-{[(2S)-1-hydroxy-3,3-dimethylbutan-2-yl]carbamoyl}benzoic acid], the negative-log Ki (pKi) was 6.82 in experiment [1], 6.62 in experiment [2], 8.00 in experiment [3] and 5.37 in experiment [4].

As for `CCOc1cc(O[C@@H]2CCOC2)c(F)c([C@@H](Nc2ccc(C(=N)N)cc2)C(=O)O)c1` [2-[(4-carbamimidoylphenyl)amino]-2-[5-ethoxy-2-fluoro-3-(oxolan-3-yloxy)phenyl]acetic acid], the pKi was 5.92 in experiment [1], 5.51 in experiment [2], 7.06 in experiment [3] and 5.15 in experiment [4].
